ChEMBL document CHEMBL1201862, “PubChem BioAssay data set” (2004)
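These data come from cells grown in 96-well plates and exposed to compound for 48 hours at five concentrations. GI50 marks 50% less growth.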 Active and inactive are the calls of the source. Cut-off read from the data, not from the text of the source: active = GI50 up to about 1.1 µM and inactive = higher.

Legend:
Experiment in all cases: NCI anticancer screen, dose series, 48 h
DLD-1 = tested on: DLD-1
RXF 631 = tested on: RXF 631
DMS-114 = tested on: DMS-114
KM-20L2 = tested on: KM-20L2
DMS-273 = tested on: DMS-273
LXFL 529 = tested on: LXFL 529
HOP-18 = tested on: HOP-18
XF498 = tested on: XF498
Hs-578T = tested on: Hs-578T

Cc1c(C(=O)O)oc2ccc([N+](=O)[O-])cc12
GI50 (DLD-1): > 100 µM (inactive) | GI50 (RXF 631): > 100 µM (inactive) | GI50 (DMS-114): > 100 µM (inactive) | GI50 (KM-20L2): > 100 µM (inactive) | GI50 (DMS-273): > 100 µM (inactive) | GI50 (LXFL 529): > 100 µM (inactive) | GI50 (HOP-18): > 100 µM (inactive) | GI50 (XF498): > 100 µM (inactive)

CCc1cccc(=O)c([O-])c1.CCc1cccc(=O)c([O-])c1.[Bi+3].[Cl-]
GI50 (DLD-1): 2.91 µM (inactive) | GI50 (RXF 631): 4.13 µM (inactive) | GI50 (DMS-114): 3.01 µM (inactive) | GI50 (KM-20L2): 10.5 µM (inactive) | GI50 (DMS-273): 7.53 µM (inactive) | GI50 (LXFL 529): 1.71 µM (inactive) | GI50 (HOP-18): 16.2 µM (inactive) | GI50 (XF498): 2.38 µM (inactive)

CCN(CC)CCCNc1nccc2c(C)c3[nH]c4ccncc4c(=O)c3cc12
GI50 (DLD-1): 1.79 µM (inactive) | GI50 (RXF 631): 1.92 µM (inactive) | GI50 (DMS-114): 0.494 µM (active) | GI50 (KM-20L2): 4.11 µM (inactive) | GI50 (DMS-273): 2.19 µM (inactive) | GI50 (LXFL 529): 1.48 µM (inactive) | GI50 (HOP-18): 2.52 µM (inactive) | GI50 (XF498): 2.46 µM (inactive)

CCOC(=O)C(=O)Nc1ccccc1C(C)C
GI50 (DLD-1): > 100 µM (inactive) | GI50 (RXF 631): > 100 µM (inactive) | GI50 (DMS-114): > 100 µM (inactive) | GI50 (KM-20L2): > 100 µM (inactive) | GI50 (DMS-273): > 100 µM (inactive) | GI50 (LXFL 529): > 100 µM (inactive) | GI50 (HOP-18): > 100 µM (inactive) | GI50 (XF498): > 100 µM (inactive)

O=C1C=C(Nc2ccccc2C(=O)CC(=O)C(=O)Nc2cccc(C(F)(F)F)c2)c2ccccc2C1=O
GI50 (Hs-578T): 21 µM (inactive) | GI50 (DLD-1): 8.45 µM (inactive) | GI50 (RXF 631): > 100 µM (inactive) | GI50 (DMS-114): 13 µM (inactive) | GI50 (KM-20L2): > 100 µM (inactive) | GI50 (DMS-273): 21.5 µM (inactive) | GI50 (LXFL 529): 18.3 µM (inactive) | GI50 (HOP-18): 13.2 µM (inactive) | GI50 (XF498): 26.2 µM (inactive)

Cn1nc(-c2ccccc2)c(C(=O)/C=C/c2ccc(F)cc2)c(N2CCOCC2)c1=O
GI50 (DLD-1): 23.1 µM (inactive) | GI50 (RXF 631): 27.7 µM (inactive) | GI50 (DMS-114): 15.9 µM (inactive) | GI50 (KM-20L2): 15.1 µM (inactive) | GI50 (DMS-273): 19.1 µM (inactive) | GI50 (LXFL 529): 16 µM (inactive) | GI50 (HOP-18): 17.3 µM (inactive) | GI50 (XF498): 19.8 µM (inactive)
